Results from patent US9480754B2, “Phospholipid ether analogs as cancer-targeting drug vehicles” (Cellectar Biosciences, Inc., priority 2014, dated 2016).

Assays:
PC-3 (Prostate) = test: Cell viability IC50, PC-3; type: cell-based
Experimental: The cell lines were then measured for cell viability and reported as IC50 for each treatment.

MDA-MB-468 cells [1] = test: Annexin V/PI flow cytometry, MDA-MB-468; type: cell-based; settings: table title 72 hours, text: paclitaxel for 24 hours
Experimental: Debris was eliminated from this analysis.
MDA-MB-468 cells, were also treated with CLR conjugates (CLR1606 and CLR1607) for 72 hours and with geldanamycin (“GEL”) for 48 hours.
CLR conjugates appear to require a longer treatment period with cells to induce cell death.

MDA-MB-468 cells [2] = test: Annexin V/PI flow cytometry, MDA-MB-468; type: cell-based; settings: 48 hrs
[3] = CLR1404 tumor selectivity across 60 tumor models; type: in vivo, rodent; settings: athymic nude (Hsd:Athymic Nude-Foxn1nu or Crl:NU-Foxn1nu), tumor, intravenous; xenograft, orthotopic, transgenic and spontaneous rodent models; read-out: tumor models showing selective uptake and prolonged retention
Experimental: All described animal studies were performed according to animal protocols approved by the Institutional Animal Care and Use Committee. Female athymic nude mice (Hsd:Athymic Nude-Foxnlnu or Crl:NU-Foxnlnu, Charles River Laboratories) about 4 to 5 weeks of age, 16 to 18 g (n=6), were used for human tumor xenograft studies. Mice were anesthetized with isoflurane and injected subcutaneously with viable tumor cells in 100 μl of Dulbecco's PBS (or, for glioma cells, […] of PBS) into the right flank. Inoculum sizes were 1×10^6 (for renal, ovarian, glioma, pancreatic, prostate, and NSCLC models), […] (for colorectal and uterine models), or 3×10^6 (breast).
Radioiodinated ^124I-CLR1404 was tested in subcutaneous and orthotopic xenografts of 60 different spontaneous, transgenic, human, and rodent malignant cell lines and tumor types. […] Representative examples are of both human (FIG. 5A-5I) and rodent (FIG. 5J-M) tumors.

[4] = tested on: non-small cell lung carcinoma (NSCLC); test: Clinical imaging of advanced NSCLC patients with 131I-CLR1404; type: in vivo, human; settings: two patients, injection of <1 mCi 131I-CLR1404, gamma imaging
Experimental: To date, two patients with advanced NSCLC were imaged after an injection of <1 mCi of ^131I-CLR1404. Blood and urine samples were collected at predetermined times, and gamma imaging performed at several time points following administration.
Materials and Methods: Following intravenous injection of iodine-131 labeled CLR1404 (1 mCi/20 μg), patients with advanced NSCLC where scanned at 3, 6, 24, 48, 96 h and at 7 and 11 days on a GE Maxxus dual Head SPECT scanner. Blood and urine samples were collected for pharmacokinetic analysis as well as clinical hematologic, renal, and hepatic bioanalysis.

[5] = tested on: human RL-251 tumor xenograft; test: Retention of 131I-CLR1404 by RL-251 tumor xenograft; type: in vivo, SCID mouse; settings: FIG. 3
Excerpt: FIG. 3. Prolonged retention of ^131I-CLR1404 by human RL-251 tumor xenograft in SCID mouse.
CLR1404 is a PLE. Results obtained in a variety of tumor models indicate that CLR1404 is sequestered and selectively retained by cancer cells and cancer stem cells. […] CLR1404 localizes in both primary and metastatic lesions regardless of anatomic location including those found in lymph nodes. See Examples 3-8.

Row | IC50 (PC-3 (Prostate)) | SMILES | Live (MDA-MB-468 cells [1]; MDA-MB-468, PTX 100 nM) | Live (MDA-MB-468 cells [1]; MDA-MB-468, PTX 1 uM) | Live (MDA-MB-468 cells [2]; MDA-MB-468, 100 nM) | Live (MDA-MB-468 cells [2]; MDA-MB-468, 1 uM) | number of tumor models with selective uptake [3] | tumor uptake and retention in the primary lung tumor [4] | time remaining in cancer cells [5]
1 | 0.9 nM | CC(=O)O[C@H]1C(=O)[C@@]2(C)[C@H]([C@H](OC(=O)c3ccccc3)[C@]3(O)C[C@H](OC(=O)[C@H](O)[C@@H](NC(=O)c4ccccc4)c4ccccc4)C(C)=C1C3(C)C)[C@]1(OC(C)=O)CO[C@@H]1C[C@@H]2O [Paclitaxel, paclitaxel, reference compound] | 53.8 % of total cells | 48.9 % of total cells | 77.9 % of total cells | 73.3 % of total cells | – | – | –
2 | – | C[N+](C)(C)CCOP(=O)([O-])OCCCCCCCCCCCCCCCCCCc1ccc(I)cc1 [CLR1404, 18-(p-Iodophenyl)octadecyl phosphocholine] | – | – | – | – | > 55 | significant tumor uptake and retention | up to 20 days
